The nature of data set [1]: Clearance in rat at 10 mg/kg, po. Type of data set: ADME, organism-based. The conditions noted are these: in vivo.
Data set [2] concerns Hepatitis C virus. Kind of data set: Antiviral activity against HCV1a by replicon assay. Format: functional, organism-based, Hepacivirus hominis. The conditions noted are these: subtype 1a. (In general: In antiviral work, replicon cells carry a viral genome segment that copies itself.)
A short description of data set [3]: Half life in human liver microsomes. Type of data set: ADME.
Data set [4] is described as follows: Oral bioavailability in rat at 10 mg/kg. Format: ADME, organism-based. The conditions noted are these: in vivo.
A short description of data set [5]: Drug uptake in rat at 10 mg/kg, po liver after 48 hrs. Type of data set: ADME, organism-based. The conditions noted are these: liver, read-out: Drug uptake.
The subject of data set [6] is Hepatitis C virus. Kind of data set: Antiviral activity against HCV1b by replicon assay. The conditions noted are these: genotype 1b. Format: functional, organism-based, Hepacivirus hominis.
Data set [7] in a line: Half life in cynomolgus monkey liver microsomes. Format: ADME, Macaca fascicularis.
A short description of data set [8]: Ratio of drug level in liver to plasma in rat at 10 mg/kg, po after 6 hrs. Type of data set: ADME, organism-based.
A short description of data set [9]: Drug uptake in rat at 10 mg/kg, po liver after 6 hrs. The conditions noted are these: read-out: Drug uptake. Type of data set: ADME, organism-based.
Another data set concerns Liver. Kind of data set: Drug uptake in rat at 10 mg/kg, po liver after 24 hrs. Format: ADME, organism-based. The conditions noted are these: in vivo, BLD = below limit of detection.
Data set [10] deals with Hepatitis C virus. Kind of data set: Antiviral activity against HCV1b by replicon assay in presence of 40% human serum. The conditions noted are these: genotype 1b. Format: functional, organism-based, Hepacivirus hominis.
A short description of another data set: in vitro. The conditions noted are these: rat, liver microsomes.
Data set [11] in a line: Permeability of the compound at pH 7.4 by PAMPA. Type of data set: ADME. The conditions noted are these: read-out: permeability. For orientation: PAMPA measures passive passage across an artificial lipid membrane.
Data set [12] is described as follows: Drug uptake in rat at 10 mg/kg, po liver after 4 hrs. Type of data set: ADME, organism-based. The conditions noted are these: read-out: Drug uptake.
A short description of data set [13]: Plasma concentration in rat at 10 mg/kg, po after 6 hrs. Type of data set: ADME, organism-based.

This note sets out measurements from ChEMBL document CHEMBL3758092, “Discovery and preclinical evaluation of potent, orally bioavailable, metabolically stable cyclopropylindolobenzazepine acylsulfonamides as thumb site 1 inhibitors of the hepatitis c virus NS5B RNA-dependent, RNA polymerase” (Bioorg Med Chem Lett, 2016).

Description for in vitro: Metabolic stability in rat liver microsomes assessed as compound remaining after 10 mins

In the case of `COc1ccc2c(c1)C1CC1(C(=O)N1C3CCC1CN(C)C3)Cn1c-2c(C2CCCCC2)c2ccc(C(=O)NS(=O)(=O)CC3CC3)cc21` (racemic), the apparent clearance CL/F (as a rule, clearance divided by bioavailability, as obtained after extravascular dosing) in data set [1] amounted to 19.6 mL/min/kg. Further, the EC50 (as a rule, the concentration needed to bring the measured effect to its halfway point) in the data set with Hepatitis C virus [2] is 5 nM; with Hepatitis C virus [6] it was 22 nM. The half-life – broadly, how long it takes for the measured level to halve – in data set [3] stood at 200 min; in [7], 39 min. For the same molecule, the bioavailability (as a rule, the share of a dose that reaches the circulation, judged against a reference dose that is usually intravenous) in data set [4] was determined as 13.7%. Besides, the concentration at 48 h in data set [5] turned out to be 150 nM.

In the case of `CCCCS(=O)(=O)NC(=O)c1ccc2c(C3CCCCC3)c3n(c2c1)CC1(C(=O)N2C4CCC2CN(C)C4)CC1c1cc(OC)ccc1-3` (racemic), the concentration giving a half-maximal response (EC50) in the data set on Hepatitis C virus [2] turned out to be 15 nM; in the data set on Hepatitis C virus [6], 45 nM. Also, the half-life in [3] was determined as 73 min; in [7], 19 min.

Take `COc1ccc2c(c1)C1CC1(C(=O)N1C3CCC1CN(C)C3)Cn1c-2c(C2CCCCC2)c2ccc(C(=O)NS(=O)(=O)C3CCCC3)cc21` (racemic): in [8], the Kp – broadly, the ratio of the level in a tissue or fluid to that in plasma or blood – at 6 h stood at 36. Also, the apparent clearance CL/F in data set [1] came to 7.7 mL/min/kg. Also, the EC50 with Hepatitis C virus [2] came out at 24 nM; with Hepatitis C virus [6] it was 62 nM. The half-life in data set [3] was over 60 min; in data set [7] it was 18.2 min. Moreover, the concentration at 6 h in [9] was 35.3 µM.

Consider `CCC(C)S(=O)(=O)NC(=O)c1ccc2c(C3CCCCC3)c3n(c2c1)CC1(C(=O)N2C4CCC2CN(C)C4)CC1c1cc(OC)ccc1-3` (racemic), for which the values for the EC50 in the data set with Hepatitis C virus [2] and in the data set with Hepatitis C virus [6] were 15 nM and 37 nM, respectively. In addition, the values for the half-life in [3] and in data set [7] were 18 min and 38 min, respectively.

As for `COc1ccc2c(c1)C1CC1(C(=O)N1C3CCC1CN(C)C3)Cn1c-2c(C2CCCCC2)c2ccc(C(=O)NS(=O)(=O)CC(C)(C)C)cc21` (racemic), in data set [8], the Kp at 6 h was 14.5. In data set [1], this molecule displayed a CL/F of 4.1 mL/min/kg. The EC50 turned out to be 23 nM with Hepatitis C virus [2] and 41 nM with Hepatitis C virus [6]. The half-life in [3] turned out to be 48 min; in [7], 8.4 min. In addition, in data set [9], the concentration at 6 h is 65.3 µM.

Consider `COc1ccc2c(c1)C1CC1(C(=O)N1C3CCC1CN(C)C3)Cn1c-2c(C2CCCCC2)c2ccc(C(=O)NS(=O)(=O)C3CCC3)cc21` (racemic), for which the concentration ratio (Kp) at 6 h in data set [8] was 67. The molecule further returned a CL/F in [1] of 5.2 mL/min/kg. For the same molecule, the EC50 in the data set on Hepatitis C virus [2] came to 23 nM; in the data set with Hepatitis C virus [6], 40 nM. Also, the half-life is over 60 min in data set [3] and 46.5 min in data set [7]. Further, the concentration at 6 h in [9] is 38.8 µM.

Turning to `COc1ccc2c(c1)C1CC1(C(=O)N1C3CCC1CN(C)C3)Cn1c-2c(C2CCCCC2)c2ccc(C(=O)NS(C)(=O)=O)cc21` (racemic), the CL/F in data set [1] was found to be 54.4 mL/min/kg. In addition, the EC50 with Hepatitis C virus [2] is 13 nM; in the data set with Hepatitis C virus [6], 18 nM. Moreover, the half-life turned out to be 179 min in data set [3] and 80 min in data set [7]. The same molecule displayed a bioavailability in data set [4] of 3.6%. The Drug uptake entry with Liver was “BLD”.

Take `COc1ccc2c(c1)[C@@H]1C[C@]1(C(=O)N1C3CCC1CN(C)C3)Cn1c-2c(C2CCCCC2)c2ccc(C(=O)NS(=O)(=O)C3CCC3)cc21`: the CL/F in data set [1] is 13.4 mL/min/kg. Besides, the half-life worked out at 70.5 min in [3] and 65.5 min in [7]. For the same molecule, the bioavailability in data set [4] turned out to be 28%. The concentration at 48 h in [5] turned out to be 70 nM. For the same molecule, the figures for the concentration giving a half-maximal response (EC50) in the data set on Hepatitis C virus [10] and in the data set with Hepatitis C virus [6] were 70 nM and 5 nM, respectively. For the same molecule, the fraction remaining (in general, what is left of the initial amount, in per cent) at 10 min in the data set “in vitro” was 87.8%.

As for `CCS(=O)(=O)NC(=O)c1ccc2c(C3CCCCC3)c3n(c2c1)CC1(C(=O)N2C4CCC2CN(C)C4)CC1c1cc(OC)ccc1-3` (racemic), the Kp at 6 h in data set [8] is 108. This molecule also registered an apparent clearance CL/F in data set [1] of 40 mL/min/kg. The figures for the EC50 in the data set with Hepatitis C virus [2] and with Hepatitis C virus [6] were 17 nM and 23 nM, respectively. For the same molecule, the half-life amounted to 206 min in [3] and 72 min in data set [7]. In data set [9], the concentration at 6 h worked out at 7.9 µM.

In [3], `COc1ccc2c(c1)C1CC1(C(=O)N1C3CCC1CN(C)C3)Cn1c-2c(C2CCCCC2)c2ccc(C(=O)NS(=O)(=O)N(C)C)cc21` (racemic) gave a half-life of 76 min. The Papp in data set [11] is 71.3 ×10⁻⁶ cm/s. This molecule had an amount remaining at 10 min in “in vitro” of 100%. The 50% effective concentration (EC50) in the data set with Hepatitis C virus [6] came to 12 nM. In [12], the concentration at 4 h turned out to be 69 µM.

With `COc1ccc2c(c1)[C@H]1C[C@@]1(C(=O)N1C3CCC1CN(C)C3)Cn1c-2c(C2CCCCC2)c2ccc(C(=O)NS(=O)(=O)C(C)C)cc21`, the figures for the EC50 in the data set on Hepatitis C virus [2] and in the data set on Hepatitis C virus [6] were 196 nM and 148 nM, respectively.

Regarding `CCCS(=O)(=O)NC(=O)c1ccc2c(C3CCCCC3)c3n(c2c1)CC1(C(=O)N2C4CCC2CN(C)C4)CC1c1cc(OC)ccc1-3` (racemic), the partition ratio (Kp) at 6 h in data set [8] worked out at 120. Besides, in data set [1], the CL/F was 16.5 mL/min/kg. Further, the 50% effective concentration (EC50) in the data set with Hepatitis C virus [2] is 8 nM; in the data set with Hepatitis C virus [6] it was 21 nM. Also, the results for the half-life in [3] and in [7] were 112 min and 37 min, respectively. Moreover, in [9], the concentration at 6 h is 13.1 µM.

Take `CCN(C)S(=O)(=O)NC(=O)c1ccc2c(C3CCCCC3)c3n(c2c1)CC1(C(=O)N2C4CCC2CN(C)C4)CC1c1cc(OC)ccc1-3` (racemic): the values for the EC50 in the data set on Hepatitis C virus [2] and in the data set on Hepatitis C virus [6] were 14 nM and 13 nM, respectively. The concentration at 6 h in data set [13] turned out to be 178 nM; in data set [9], 36.4 µM. For the same molecule, in data set [3], the half-life stood at 27.3 min. In data set [11], the Papp amounted to 56.1 ×10⁻⁶ cm/s. Moreover, the fraction remaining at 10 min in “in vitro” was 94%.

As to `COc1ccc2c(c1)C1CC1(C(=O)N1C3CCC1CN(C)C3)Cn1c-2c(C2CCCCC2)c2ccc(C(=O)NS(=O)(=O)N3CCC3)cc21` (racemic), the values for the EC50 with Hepatitis C virus [2] and in the data set with Hepatitis C virus [6] were 12 nM and 24 nM, respectively. Further, the results for the concentration at 6 h in data set [13] and in [9] were 20 nM and 0.8 µM, respectively. In addition, the half-life in [3] came out at 135 min; in [7], 55 min. Also, in [11], the Papp is 66.5 ×10⁻⁶ cm/s. The same molecule gave a share remaining at 10 min in “in vitro” of 100%.

As to `COc1ccc2c(c1)C1CC1(C(=O)N1C3CCC1CN(C)C3)Cn1c-2c(C2CCCCC2)c2ccc(C(=O)NS(=O)(=O)CC(C)C)cc21` (racemic), in data set [8], the Kp at 6 h was found to be 150. In data set [1], this molecule yielded a CL/F of 9.2 mL/min/kg. For the same molecule, the EC50 was 14 nM in the data set with Hepatitis C virus [2] and 22 nM with Hepatitis C virus [6]. The half-life was over 60 min in data set [3] and 24.5 min in data set [7]. For the same molecule, in data set [9], the concentration at 6 h worked out at 88.3 µM.

For `COc1ccc2c(c1)C1CC1(C(=O)N1C3CCC1CN(C)C3)Cn1c-2c(C2CCCCC2)c2ccc(C(=O)NS(=O)(=O)C(C)(C)C)cc21` (racemic), the CL/F in data set [1] amounted to 13.5 mL/min/kg. In addition, the results for the EC50 in the data set with Hepatitis C virus [2] and in the data set with Hepatitis C virus [6] were 8 nM and 23 nM, respectively. The values for the half-life in data set [3] and in data set [7] were over 60 min and 44 min, respectively. The molecule also displayed a bioavailability in data set [4] of 12.4%. Also, in the data set on Liver, the Drug uptake result is “BLD”.

Turning to `COc1ccc2c(c1)C1CC1(C(=O)N1C3CCC1CN(C)C3)Cn1c-2c(C2CCCCC2)c2ccc(C(=O)NS(=O)(=O)C(C)C)cc21` (racemic), in [8], the Kp at 6 h was found to be 13. Further, the results for the 50% effective concentration (EC50) with Hepatitis C virus [2] and in the data set on Hepatitis C virus [6] were 20 nM and 28 nM, respectively. In [4], this molecule displayed a bioavailability of 65%. Besides, the concentration at 6 h in data set [9] was 26.2 µM.

Turning to `COc1ccc2c(c1)C1CC1(C(=O)N1C3CCC1CN(C)C3)Cn1c-2c(C2CCCCC2)c2ccc(C(=O)NS(=O)(=O)C3CC3)cc21` (racemic), the concentration ratio (Kp) at 6 h in data set [8] is 66. Moreover, the apparent clearance CL/F in data set [1] came out at 26.9 mL/min/kg. For the same molecule, the EC50 with Hepatitis C virus [2] was 7 nM; with Hepatitis C virus [6], 15 nM. Further, the half-life in [3] turned out to be 179 min; in data set [7], 130 min. In addition, the bioavailability in data set [4] was found to be 4.9%. Besides, in [12], the concentration at 4 h was determined as 6.4 µM.
